Test results taken from patent US8044198B2, “Sirtuin modulating compounds” (Sirtris Pharmaceuticals, Inc., priority 2005, dated 2011).
Like-named read-outs stand apart in the source and are kept apart here.

Target: T1, SIRT1 (Homo sapiens, UniProt Q96EB6)
T1 sequence (Q96EB6 1-747): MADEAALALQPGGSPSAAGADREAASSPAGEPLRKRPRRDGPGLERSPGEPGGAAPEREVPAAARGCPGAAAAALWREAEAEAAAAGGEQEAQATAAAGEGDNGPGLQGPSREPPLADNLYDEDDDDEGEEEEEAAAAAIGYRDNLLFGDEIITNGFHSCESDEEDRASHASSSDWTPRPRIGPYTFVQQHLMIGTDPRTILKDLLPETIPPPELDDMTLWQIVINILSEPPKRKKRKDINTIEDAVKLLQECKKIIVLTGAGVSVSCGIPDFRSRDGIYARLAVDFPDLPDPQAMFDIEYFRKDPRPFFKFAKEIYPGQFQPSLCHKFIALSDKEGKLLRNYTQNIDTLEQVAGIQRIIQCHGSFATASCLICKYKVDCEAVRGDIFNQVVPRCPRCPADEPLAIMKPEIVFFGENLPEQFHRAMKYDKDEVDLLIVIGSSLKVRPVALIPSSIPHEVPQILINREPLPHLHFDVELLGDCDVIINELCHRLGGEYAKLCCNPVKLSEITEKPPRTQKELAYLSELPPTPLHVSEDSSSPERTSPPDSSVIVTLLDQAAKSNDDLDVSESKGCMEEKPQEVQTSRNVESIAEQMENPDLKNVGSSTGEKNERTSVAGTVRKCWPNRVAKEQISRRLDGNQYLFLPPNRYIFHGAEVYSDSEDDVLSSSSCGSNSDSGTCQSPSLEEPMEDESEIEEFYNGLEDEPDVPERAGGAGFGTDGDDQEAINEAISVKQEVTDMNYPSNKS
Assay: SIRT1 mass spectrometry (MS) based deacetylation assay; for FOLD ACT. MS: test concentration or dose not given here
Format: biochemical
Details: for FOLD ACT. MS: fold activation of SIRT1 as determined by MS

[1] = SIRT1 activation, mass spectrometry assay, read-out: ED50 MS ASSAY

Structure (SMILES)	EC50 [1]	FOLD ACT. MS	EC50
COC(=O)c1cc(NC(=O)c2ccc(OC)c(OC)c2)cc(-c2nc3ncccc3o2)c1 [Compound 136, Methyl 3-(3,4-dimethoxybenzamido)-5-(oxazolo[4,5-b]pyridin-2-yl)benzoate]	> 150 µM		
CN(C)c1cccc(C(=O)Nc2cc(C(=O)N3CCNCC3)cc(-c3nc4ncccc4o3)c2)c1 [Compound 138]	5 to 50 µM	B (B (Fold Activation <250%))	
COc1ccc(C(=O)Nc2cc(C(=O)N3CCNCC3)cc(-c3nc4ncccc4o3)c2)c(OC)c1 [Compound 139]	5 to 50 µM	B (B (Fold Activation <250%))	
COc1cc(OC)cc(C(=O)Nc2ccccc2-c2nc3ccccc3[nH]2)c1 [Compound 141]	< 5 µM	B (B (Fold Activation <250%))	
COc1ccc(C(=O)Nc2ccccc2-c2nc3ccccc3[nH]2)cc1OC [Compound 142]	< 5 µM	A (A (Fold activation >250%))	
COc1ccc(S(=O)(=O)Nc2ccccc2-c2nc3ccccc3[nH]2)cc1OC [Compound 143]	> 150 µM		
COc1cc(C(=O)Nc2sccc2-c2nc3ccccc3s2)cc(OC)c1OC [Compound 144]	> 150 µM		
COc1ccc(C(=O)Nc2sccc2-c2nc3ccccc3s2)cc1OC [Compound 145]	< 5 µM	B (B (Fold Activation <250%))	
COc1cc(OC)cc(C(=O)Nc2sccc2-c2nc3ccccc3s2)c1 [Compound 146]	< 5 µM	B (B (Fold Activation <250%))	
S=C(Nc1ccc2c(c1)OCO2)Nc1cccc(-c2nc3ncccc3o2)n1 [Compound 147]	> 150 µM		
COc1ccc(C(=O)Nc2ccc(-c3nc4cccnc4[nH]3)cc2)c(OC)c1OC [Compound 148]	> 150 µM		
COc1cc(C)ccc1C(=O)Nc1ccc(-c2nc3cccnc3[nH]2)cc1 [Compound 149]	< 5 µM	B (B (Fold Activation <250%))	
COc1ccc(C(=O)Nc2ccc(-c3nc4cccnc4[nH]3)cc2)cc1OC [Compound 150]	< 5 µM	B (B (Fold Activation <250%))	
COc1ccc(C(=O)Nc2ccc(-c3nc4cccnc4[nH]3)cc2)c(OC)c1 [Compound 151]	> 150 µM		
COc1ccc(C(=O)Nc2ccc(-c3nc4ncccc4s3)cc2)c(OC)c1 [Compound 152]	> 150 µM		
COc1ccc(C(=O)Nc2cc(C(=O)NCCN(C)C)cc(-c3nc4ncccc4o3)c2)cc1OC [Compound 153]	5 to 50 µM	B (B (Fold Activation <250%))	
CN(C)CCNC(=O)c1cc(NC(=O)c2cccc(N(C)C)c2)cc(-c2nc3ncccc3o2)c1 [Compound 154]	101 to 150 µM	A (A (Fold activation >250%))	
COc1ccc(C(=O)Nc2cc(C(=O)NCCN(C)C)cc(-c3nc4ncccc4o3)c2)c(OC)c1 [Compound 155]	5 to 50 µM	B (B (Fold Activation <250%))	
COc1ccc(C(=O)Nc2cc(CN(C)C)cc(-c3nc4ncccc4o3)c2)cc1OC [Compound 156]	5 to 50 µM	B (B (Fold Activation <250%))	
CN(C)Cc1cc(NC(=O)c2cccc(N(C)C)c2)cc(-c2nc3ncccc3o2)c1 [Compound 157]	> 150 µM	B (B (Fold Activation <250%))	
COc1ccc(C(=O)Nc2cc(CN(C)C)cc(-c3nc4ncccc4o3)c2)c(OC)c1 [Compound 158]	5 to 50 µM	B (B (Fold Activation <250%))	
COc1ccc(C(=O)Nc2cc(CN3CCNCC3)cc(-c3nc4ncccc4o3)c2)cc1OC [Compound 159]	5 to 50 µM	B (B (Fold Activation <250%))	
CN(C)c1cccc(C(=O)Nc2cc(CN3CCNCC3)cc(-c3nc4ncccc4o3)c2)c1 [Compound 160]	51 to 100 µM	A (A (Fold activation >250%))	
COc1ccc(C(=O)Nc2cc(CN3CCNCC3)cc(-c3nc4ncccc4o3)c2)c(OC)c1 [Compound 161]	5 to 50 µM	A (A (Fold activation >250%))	
COc1ccc(C(=O)Nc2ccccc2-c2nc3ccncc3s2)cc1OC [Compound 162]	< 5 µM	B (B (Fold Activation <250%))	
COc1cc(C(=O)Nc2ccccc2-c2nc3ccncc3s2)cc(OC)c1OC [Compound 163]	< 5 µM	B (B (Fold Activation <250%))	
CN(C)Cc1ccc2oc(-c3cccc(NC(=O)c4cccc(N(C)C)c4)c3)nc2n1 [Compound 165]	> 150 µM	A (A (Fold activation >250%))	

Structure (SMILES)	EC50 [1]	FOLD ACT. MS	EC50
CN(C)c1cccc(C(=O)Nc2cccc(-c3nc4nc(CN5CCNCC5)ccc4o3)c2)c1 [Compound 166, 3-dimethylamino-N-[3-(5-piperazin-1-ylmethyl-oxazolo[4,5-b]pyridin-2-yl)-phenyl]-benzamide]	5 to 50 µM	B (B (Fold Activation <250%))	
Cc1ccc2oc(-c3cccc(NC(=O)c4cccc(N(C)C)c4)c3)nc2n1 [Compound 167]	5 to 50 µM	B (B (Fold Activation <250%))	
CN(C(=O)Nc1ccccc1-c1nc2ccccc2[nH]1)c1ccccc1 [Compound 169]	< 5 µM	B (B (Fold Activation <250%))	
COc1cc(C(=O)Nc2cc(CN(C)C)cc(-c3nc4ccncc4s3)c2)cc(OC)c1OC [Compound 174]	51 to 100 µM	A (A (Fold activation >250%))	
COc1ccc(C(=O)Nc2ccccc2-n2cccc2)cc1OC [Compound 175]	51 to 100 µM	B (B (Fold Activation <250%))	
COc1cc(C(=O)Nc2ccccc2-n2cccn2)cc(OC)c1OC [Compound 176]	51 to 100 µM	B (B (Fold Activation <250%))	
COc1ccc(C(=O)Nc2ccccc2-n2cccn2)cc1OC [Compound 177]	> 150 µM	B (B (Fold Activation <250%))	
COc1ccc(C(=O)Nc2ccccc2-c2cn3cc(CN(C)C)sc3n2)cc1OC [Compound 178]	5 to 50 µM	A (A (Fold activation >250%))	
COc1cc(C(=O)Nc2ccccc2-c2cn3cc(CN(C)C)sc3n2)cc(OC)c1OC [Compound 179]	< 5 µM	A (A (Fold activation >250%))	
CN(C)c1cccc(C(=O)Nc2ccc(-c3nc4cccnc4[nH]3)cc2)c1 [Compound 180]	5 to 50 µM	B (B (Fold Activation <250%))	
COc1ccc(C(=O)Nc2cccc(-c3nc4cccnc4[nH]3)c2)c(OC)c1OC [Compound 181]	< 5 µM	A (A (Fold activation >250%))	
COc1cc(C)ccc1C(=O)Nc1cccc(-c2nc3cccnc3[nH]2)c1 [Compound 182]	< 5 µM	A (A (Fold activation >250%))	
CN(C)c1cccc(C(=O)Nc2cccc(-c3nc4ncccc4[nH]3)c2)c1 [Compound 183]	5 to 50 µM	A (A (Fold activation >250%))	
COc1ccc(C(=O)Nc2cccc(-c3nc4ncccc4[nH]3)c2)c(OC)c1 [Compound 184]	< 5 µM	B (B (Fold Activation <250%))	
COc1ccc(C(=O)Nc2cccc(-c3nc4cccnc4[nH]3)c2)cc1OC [Compound 185]	< 5 µM	A (A (Fold activation >250%))	
COc1cc(C)ccc1C(=O)Nc1ccc(-c2cc3cccnc3o2)cc1 [Compound 187]	5 to 50 µM	B (B (Fold Activation <250%))	
COc1ccc(C(=O)Nc2ccc(-c3cc4cccnc4o3)cc2)c(OC)c1 [Compound 190]	< 5 µM	B (B (Fold Activation <250%))	
COc1ccc(C(=O)Nc2cccc(-c3cc4cccnc4o3)c2)c(OC)c1 [Compound 191]	< 5 µM	B (B (Fold Activation <250%))	
COc1ccc(C(=O)Nc2cccc(-c3cc4cccnc4o3)c2)cc1OC [Compound 192]	5 to 50 µM	B (B (Fold Activation <250%))	
CN(C)c1cccc(C(=O)Nc2ccc(-c3nc4ncccc4s3)cc2)c1 [Compound 196]	5 to 50 µM	B (B (Fold Activation <250%))	
COc1ccc(C(=O)Nc2ccc(-c3nc4ncccc4s3)cc2)cc1OC [Compound 197]	< 5 µM	B (B (Fold Activation <250%))	
COc1ccc(C(=O)Nc2cccc(-c3nc4ncccc4s3)c2)c(OC)c1OC [Compound 198]	5 to 50 µM	B (B (Fold Activation <250%))	
COc1cc(C)ccc1C(=O)Nc1cccc(-c2nc3ncccc3s2)c1 [Compound 199]	< 5 µM	B (B (Fold Activation <250%))	
CN(C)c1cccc(C(=O)Nc2cccc(-c3nc4ncccc4s3)c2)c1 [Compound 200]		B (B (Fold Activation <250%))	< 5 µM
COc1ccc(C(=O)Nc2cccc(-c3nc4ncccc4s3)c2)cc1OC [Compound 201]	5 to 50 µM	B (B (Fold Activation <250%))	
COc1ccc(C(=O)Nc2cccc(-c3nc4ncccc4s3)c2)c(OC)c1 [Compound 202]	< 5 µM	B (B (Fold Activation <250%))	
